Data as given in paper PMC7463999, “Antioxidant, Anti-inflammatory and Neuroprotective Profiles of Novel 1,4-Dihydropyridine Derivatives for the Treatment of Alzheimer’s Disease” (Antioxidants, 2020).
“And” between values parts separate entries of the source, which are not always exact repeats. Identical values can stand only once. Like-named read-outs stand apart in the source and are kept apart here.

Tests used:
[1] = tested on: SH-SY5Y human neuroblastoma cells; experiment: Neuroprotection against okadaic acid (tau hyperphosphorylation), MTT; conditions: Homo sapiens, SH-SY5Y, 18 h, read-out: cell viability (percentage survival), okadaic acid toxicity
Protocol: (§1) Cells were pre-incubated with the corresponding compound at 1 μM in neuroblastoma culture medium. After 24 h, the medium was removed and replaced with 1% FBS neuroblastoma culture media containing the corresponding compound at 1 µM and the toxic stimuli, namely a mixture of rotenone and oligomycin A (R/O, 30 μM/10 μM, respectively), okadaic acid (OA) at 20 nM or a high concentration of KCl (70 mM). Cells were co-incubated for further 24 h with the R/O mixture or KCl solution, or 18 h with the OA solution. […] Control cells were incubated with the same amount of dimethyl sulfoxide (DMSO) without any drug. After the co-incubation period, cell viability was assessed by the 3-(4,5-dimethylthiazol-2-yl)-2,5-diphenyltetrazolium bromide (MTT) reduction method [56]; basal condition was considered as 100% survival.
(§2) Neuroprotection in the SH-SY5Y neuroblastoma cell line
(§3) A pre- and co-incubation protocol was followed. Cells were pre-incubated with the
(§4) corresponding compound at 1 M in neuroblastoma culture medium. After 24 h, the
(§5) medium was removed and replaced with 1% FBS neuroblastoma culture media
(§6) containing the corresponding compound at 1 µM and the toxic stimuli, namely a mixture
(§7) of rotenone and oligomycin A (30 M/10 M respectively), okadaic acid at 20 nM or a
(§8) high concentration of potassium chloride (70 mM). Cells were co-incubated for further
(§9) 24 h with the rotenone and oligomycin A or potassium chloride solution, or 18 h with the
(§10) okadaic acid solution. Control cells were incubated with the same amount of DMSO
(§11) and reference compounds in the rotenone-oligomycin A, okadaic acid or high
(§12) concentration of potassium models respectively. After the co-incubation period, cell
(§13) viability was assessed by the MTT-reduction method [11] considering basal conditions
Viability assay by MTT-reduction
(§14) SH-SY5Y, primary glial culture cells and rat hippocampal slices viability was
(§15) measured by the MTT assay [11]. This method is based on the cleavage of the tetrazolium
(§16) ring of MTT by active dehydrogenases, generating a formazan precipitate. At the end of
(§17) the neuroprotection or toxicity experiments, an MTT solution was added to each well to
(§18) reach a final concentration of 0.5 mg/mL. After 2 additional hours of incubation, the
(§19) solution was replaced by 100 or 300 µL of DMSO to solubilize the formazan precipitate.
(§20) in control cells was considered as 100 % of cell survival and used to reference all
(§21) treatments. The percentage of protection was calculated as follows: the percentage of cell
(§22) survival obtained with the toxic stimuli-treated cells subtracted to 100 was normalized to
(§23) 100 % of cell death. The percentage of protection was obtained by subtracting the
(§24) percentage of cell death in presence of the tested compound to 100 %.

[2] = tested on: rat hippocampal slices; experiment: ROS production (H2DCFDA) in rat hippocampal slices treated with okadaic acid; format: cell-based; conditions: OA 1 μM + compound 10 μM, 6 h
[3] = tested on: primary glial cultures; experiment: Cytotoxicity (gliotoxicity) in primary glial cultures, MTT; conditions: 24 h
Protocol: (§25) cell line SH-SY5Y and primary glial cultures. Viability was measured as
(§26) MTT reduction in presence of increasing concentrations of derivatives.
(§27) Values are expressed as LD50 calculated from dose-response curves of four
(§28) different concentrations. Data are expressed as mean  SEM of five
different experiments in triplicate.
Mixed glial cultures were obtained from cerebral cortex of 2-5-day-old Sprague-Dawley rats. After removal of blood vessels and meninges, the forebrains were dissociated in DMEM/F12 medium. After mechanical dissociation, cells were plated (3x10^5 cells/ml) in DMEM/F12 medium with 20 % fetal bovine serum (FBS) and 1 % penicillin/streptomycin (10,000 units), at 37 °C and in a 5 % CO2-supplemented air atmosphere. After 5 days, medium was substituted by DMEM/F12 medium with 10 %
FBS. Cells were cultured for 7-10 days before treatment.
(§29) SH-SY5Y or primary glial cells were cultured in 96-well plates for 24 h. Then, cells
(§30) were treated with the compounds at 10, 30 and 100 µM in the corresponding culture media
(§31) with 1 % FBS After 24 h, cell viability was assessed by the MTT-reduction assay. Control
(§32) cells were incubated with the same concentration of DMSO (0.1 % final concentration)
Viability assay by MTT-reduction
as §14
measured by the MTT assay [11].

[4] = tested on: neuroblastoma cell line SH-SY5Y; experiment: Cytotoxicity (neurotoxicity) in SH-SY5Y, MTT; conditions: 24 h
Protocol: LD50 in SH-SY5Y and primary glial culture cells
as §25, §26, §27, §28
different experiments in triplicate.
as §29, §30, §31, §32
Viability assay by MTT-reduction
as §14, §15, §16, §17, §18, §19, §20

[5] = tested on: primary glial cultures stimulated with LPS; experiment: Nitrite production reduction (Griess) in LPS-stimulated mixed primary glial cultures; format: cell-based, rat
[6] = molecular target: GSK-3β (Homo sapiens, UniProt P49841); experiment: GSK-3β inhibition, Kinase-Glo luminescence assay
[7] = DPPH reduction assay; conditions: DPPH 100 µM, 1 h in the dark
Protocol: The final solution was incubated during 1 h in the dark. […] Results are expressed as a percentage of DPPH reduction by subtracting blank absorbance (Absblank) to sample absorbance (Abssample) and corrected by control absorbance, (Abscontrol, DPPH alone, as expressed below: % DPPH reduction = [100 − ((Abssample − Absblank) × 100/Abscontrol)](1)
Briefly, the compounds under assay (150 µL) at the desired concentration (1, 10, 60 and 100 µM) in methanol/water (80/20) were added to a solution of DPPH in methanol/water (80/20) (150 µL, 100 µM), in a clear bottom 96-well plate, and the final solution was incubated 1 h in the dark. Then, DPPH absorbance of blank (methanol/water), control
Optima plate-reader (BMG Labtech, Ortenberg, Germany) in duplicate.
Results are expressed as % of absorbance (Abs) reduction of control after subtracting blank absorbance, as expressed
% DPPH reduction = [100 – (Abssample-Absblank) x 100]/Abscontrol

[8] = tested on: blood-brain barrier (passive diffusion); experiment: Blood-brain barrier permeation assay (PAMPA), porcine brain lipid; format: in vitro ADME; conditions: PAMPA; 100 µM, PBS pH 7.4, 4 h at 25 °C, mean ± SEM; read-out: PAMPA Pe
[9] = as above; format: in vitro ADME
[10] = tested on: voltage-dependent Ca^2+ channels (VDCC); experiment: Voltage dependent calcium channels blockade assay (Fluo-4, 70 mM K+); format: cell-based, human; conditions: compounds at 10 μM, SH-SY5Y, basal = 100% response
Protocol: Free cytosolic Ca^2+ was measured using the fluorescence Ca^2+ indicator Fluo-4/AM. SH-SY5Y cells were seeded in 96-well black bottom transparent plates at a density of 60,000 cells per well and cultured until they reach confluence. Cells were incubated with the Ca^2+ sensitive dye Fluo-4/AM at 5 µM in Krebs-HEPES buffer (KH) (145 mM NaCl, 4.9 mM KCl, 1.2 mM MgCl2, 2 mM CaCl2, 10 mM HEPES, 11 mM glucose, pH 7.4), and 0.05% pluronic acid, for 1 h at 37 °C in the dark. Then, cells were washed twice with KH solution to remove the excess of probe and compounds in solution were added. Test compounds at 10 µM were incubated 10 min before K^+ 70 mM was applied to trigger cytosolic Ca^2+ increase. Fluorescence was measured in a fluorescence microplate reader (FLUOstar Optima, BMG, Ortenberg, Baden-Wuerttemberg, Germany) at excitation and emission wavelengths 485 and 520 nm, respectively. To normalize Fluo-4 signals, Triton X-100 (5%) and subsequently MnCl2 1 M were applied to the cells to register maximal and minimal fluorescence, respectively. Data were calculated as a percentage of Fluorescence increment with respect to Fmax − Fmin. The percentage of response was calculated considering basal conditions as 100% response.
Voltage dependent Calcium Channel Blockade Assay
Free cytosolic Ca2+ was measured using the fluorescence Ca2+ indicator Fluo-4/AM.
SH-SY5Y cells were seeded in 96-well black bottom transparent plates at a density of 60,000 cells per well until reaching confluence. Cells were incubated with the Ca2+ sensitive dye fluo-4 AM at 5 µM in Krebs-Hepes buffer (KH) (145 mM NaCl, 4.9 mM KCl, 1.2 mM MgCl2, 2 mM CaCl2, 10 mM HEPES, 11 mM glucose, pH 7.4), and 0.05 % pluronic acid, for 1 h at 37 °C in the dark. Then, cells were washed twice with KH solution to remove the excess of probe and compounds in solution were added. Tested compounds at 10 µM were incubated 10 min before K+ 70 mM was applied to evoke the increment of cytosolic Ca2+. The experiments were analyzed at excitation and emission wavelengths of 485 and 520 nm, respectively, and fluorescence was measured in a fluorescence microplate reader (FLUOstar Optima, BMG, Germany). To normalize Fluo-4 signals, Triton X-100 (5 %) and subsequently MnCl2 1 M were applied to cells for registering both maximal and minimal fluorescence, respectively. Data were calculated as % F increment respect to Fmax – Fmin. % of blockade was calculated considering basal conditions as 100 % response.
Then, the donor filter plate was carefully put on the acceptor plate to form a “sandwich”, which was left undisturbed for 4 h at 25 °C. During this time, the compounds diffused from the donor plate through the polar brain lipid membrane (area = 0.28 cm2) into the acceptor plate. After incubation, the donor plate was carefully removed. UV plate reader determined the concentration of compounds and commercial drugs in both acceptor and […]

[11] = tested on: SH-SY5Y human neuroblastoma cells; experiment: Neuroprotection against rotenone/oligomycin A (oxidative stress), MTT; conditions: 1 μM, rotenone 30 μM / oligomycin A 10 μM, 24 h
Protocol: as §1, §2, §3, §4, §5, §6, §7, §8, §9, §10, §11, §12, §13
Viability assay by MTT-reduction
as §14, §15, §16, §17, §18, §19, §20, §21, §22, §23, §24

[12] = Oxygen Radical Absorbance Capacity (ORAC) assay; conditions: Trolox equivalents, ORAC of Trolox = 1.0; AAPH, fluorescein
[13] = tested on: primary glial cultures stimulated with LPS; conditions: read-out: EC50 Nitrite Reduction; LPS 1 μg/mL; cited from earlier work

Chain of GSK-3β (P49841 whole entry): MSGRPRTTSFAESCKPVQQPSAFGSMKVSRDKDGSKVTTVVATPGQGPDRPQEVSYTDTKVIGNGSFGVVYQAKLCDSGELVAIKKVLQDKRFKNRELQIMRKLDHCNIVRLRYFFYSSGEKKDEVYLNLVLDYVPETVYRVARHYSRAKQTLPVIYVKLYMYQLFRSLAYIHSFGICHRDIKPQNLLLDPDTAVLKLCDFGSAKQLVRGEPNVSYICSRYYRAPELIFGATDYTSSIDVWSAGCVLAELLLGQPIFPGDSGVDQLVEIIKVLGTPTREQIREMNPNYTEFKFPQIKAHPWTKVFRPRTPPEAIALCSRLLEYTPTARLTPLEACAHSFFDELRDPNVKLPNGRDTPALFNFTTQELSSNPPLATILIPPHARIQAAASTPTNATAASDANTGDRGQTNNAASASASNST

Row | Structure (SMILES) | viability at 1 µM [1] | free radical production (H2DCFDA fluorescence) [2] | Glial cultures LD50 [3] | SH-SY5Y LD50 [4] | EC50 ([5]; Rattus norvegicus, LPS 1 μg/mL, 24 h pre-incubation, 18 h co-incubation) | fold more potent as anti-inflammatory than 4f ([5]; ratio of nitrite reduction EC50 values) | IC50 [6] | Ki [6] | IC50 [7] | Papp at 4 h, 100 µM [8] | PAMPA Prediction ([9]; BBB permeability class from Pe) | BBB permeation prediction in words ([9]; PAMPA) | VDCC % Response [10] | percentage of protection, R/O toxicity [11] | ORAC (T. Eq.) [12] | EC50 [13]
1 | Cc1[nH]nc2c1C(c1ccc(Br)cc1)C(C#N)=C(N)N2 (stereo not shown) [4g, 6-amino-4-(4-bromophenyl)-3-methyl-4,7-dihydro-2H-pyrazolo[3,4-b]pyridine-5-carbonitrile] | 86.7% | reduced free radical production to basal conditions | > 100 µM | > 100 µM | 4.5 ± 0.6 µM | 2.2 fold | 2350 ± 1100 nM | 1650 nM | 24.1 ± 3.74 µM | 7.2 ± 2.4 ×10⁻⁶ cm/s | CNS+ | predicted to cross the BBB | 62% and 62.1 ± 1.6% | 59.7% | 0.96 T. Eq. and 0.96 ± 0.05 T. Eq. | 
2 | C[S+]([O-])CCCCN=C=S (stereo not shown) [Sulforaphane] |  |  |  |  |  |  |  |  |  |  |  |  |  |  |  | 1400 ± 300 nM
